Test results from PMC8659250, “Adjusting the Structure of β-Cyclodextrin to Improve Complexation of Anthraquinone-Derived Drugs” (Molecules, 2021).
Structures can show the parent of a compound that is named as a salt. Where two headings read alike, the source gives them in different places.

Legend:
[1] = Solubility of AQ2CA without cyclodextrins (UV-Vis); format: physicochemical; conditions: 25 °C, thermodynamic from solid
Excerpt: (§1) Anthraquinone-2-carboxylic acid (AQ2CA) is a poorly water-soluble drug (SAQ2CA in water = 3.98 × 10^−5 M). […] An improvement in the aqueous solubility of AQ2CA would improve the biological availability of the drug. Such a drug solubilization effect was achieved via complexation using appropriate CD derivatives. The phase solubility method developed by Higuchi and Connors was employed to quantify the solubilization ability of cyclodextrins. The solubility values of AQ2CA in water, BR buffer at pH 7.4 (pH corresponding to the physiological conditions), and BR buffer at pH 3.0, with the addition of CDs was determined. The pH values characteristic for bodily fluids (pH 7.4) and for gastric juices (pH 3) were chosen for these measurements. […] According to the Higuchi and Connors classification, the phase solubility diagrams for anthraquinone-2-carboxylic acid with various cyclodextrin concentrations can be classified as AL type.
(§2) Solubility studies of anthraquinone-2-carboxylic acid with three different cyclodextrins were carried out according to the Higuchi and Connors procedure. The solutions of cyclodextrin in water and Britton–Robinson buffers (pH 7.4 and 5.5) were prepared in a concentration range of 0–3 mM. A constant amount of AQ2CA (3 mM) that exceeded its solubility was added into the cyclodextrin solution. Molar ratios of AQ2CA/CD were 1:0, 1:0.2, 1:0.4, 1:0.6, 1:0.8, and 1:1. Three samples of each molar ratio were prepared. The suspensions were shaken for 24 h at 25 °C, after which equilibrium was reached. After 24 h, the concentration of the dissolved drug was monitored by UV-Vis spectroscopy and plateaued; thus, the maximum dissolved drug was achieved. Subsequently, the samples were filtered using a 0.45 µm filter and appropriately diluted. The aliquots of solutions were assayed for AQ2CA again, by UV-Vis spectroscopy, in the 200–600 nm range with a maximum absorbance value for AQ2CA at 335 nm. […] The association constants of the inclusion complexes were determined using the following equation:(1) K1:1=Slope/S0(1−Slope) where K1:1 is the association constant and S0 is the solubility of AQ2CA in the absence of cyclodextrin. The slope was measured by UV-Vis spectroscopy from the initial straight-line part of the AQ2CA concentration vs. CD concentration plot. The uncertainty was determined as the standard deviation of the three values of the association constants obtained from three different repetitions of the given system.

[2] = cited from earlier work
[3] = Phase solubility diagrams (Higuchi and Connors) of AQ2CA with cyclodextrins; format: physicochemical; conditions: for K1:1 (association constant, AQ2CA–cyclodextrin): phase solubility diagram, 25 °C; for Increase in solubility of AQ2CA (in words): pH 3.0
Excerpt: as §1
The association constant of the AQ2CA–cyclodextrin complex (1:1) was calculated from the linear plot of the phase solubility diagrams using Equation (1). The lines are started at the point of initial drug solubility, meaning, i.e., without the addition of cyclodextrin. The values of K1:1, as well as the solubility increase and correlation coefficients of the phase solubility diagrams, are presented in Table 1.
as §2, with “The solutions of cyclodextrin in water and Britton–Robinson buffers (pH 7.4 and 5.5) were prepared in a concentration range of 0–3 mM.” left out

[4] = Determination of pKa values of CD derivatives by UV-Vis spectroscopy; format: physicochemical; conditions: Britton–Robinson buffer, pH range 2.7 to 9.5, triazole linker
Excerpt: Due to the fact that the triazole linker in CD derivatives contains a basic nitrogen atom that can be protonated at an acidic pH, we determined the value of pKa by UV-Vis spectroscopy. The spectra of βCDGAL, βCDLip, and βCDTriazol, at the pH range between 2.7 and 9.5, are presented on Figure 3. The dependence of the absorbance of the peak maximum at wavelengths in the range of 210–220 on the pH of the buffer is presented in the figures. According to the equation […] for equal concentrations of the protonated and deprotonated forms, pKa = pH; the pKa value, for all three derivatives containing the triazole linker, was determined to be 4.5.
The UV-Vis measurements were performed using an Agilent Technologies Cary 60 UV-Vis Spectrophotometer (Santa Clara, CA, USA). All UV-Vis spectra were measured using quartz cuvettes with a 1 cm optical path length. For pKa determination the 0.2 mg/mL concentration of βCDTriazole, βCDGAL or βCDLip in Britton–Robinson buffer were used.

SMILES	K1:1 (association constant, AQ2CA–cyclodextrin) ([3]; Britton–Robinson buffer pH 3.0)	K1:1 (association constant, AQ2CA–cyclodextrin) ([3]; Britton–Robinson buffer pH 7.4)	K1:1 (association constant, AQ2CA–cyclodextrin) ([3]; water)	pKa [4]	other results
O=C(O)c1ccc2c(c1)C(=O)c1ccccc1C2=O [AQ2CA, 9,10-dihydro-9,10-dioxo-2-anthracenecarboxylic acid]	–	–	–	–	solubility at 24 h ([1]; aqueous buffer, Britton–Robinson buffer pH 3.0, without CDs, read-out: Solubility of AQ2CA in Britton–Robinson buffer, pH 3.0): 1.43 µM; solubility at 24 h ([1]; aqueous buffer, Britton–Robinson buffer pH 3.0, read-out: Solubility in Britton–Robinson buffer, pH 3.0 without CDs): 0.36 µg/mL; solubility at 24 h ([1]; aqueous buffer, Britton–Robinson buffer pH 7.4, without CDs, read-out: Solubility of AQ2CA in Britton–Robinson buffer, pH 7.4): 1740 µM; solubility at 24 h ([1]; aqueous buffer, Britton–Robinson buffer pH 7.4, read-out: Solubility in Britton–Robinson buffer, pH 7.4 without CDs): 440 µg/mL; solubility at 24 h ([1]; water, without CDs, read-out: Solubility of AQ2CA in water): 39.8 µM; solubility at 24 h ([1]; water, water, read-out: Solubility in water without CDs): 10 µg/mL
COc1cccc2c1C(=O)c1c(O)c3c(c(O)c1C2=O)C[C@@](O)(C(C)=O)C[C@@H]3O[C@H]1C[C@H](N)[C@H](O)[C@H](C)O1 [DNR, daunorubicin]	–	–	–	–	pKa [2]: 7.48
OC[C@H]1O[C@@H]2O[C@H]3[C@H](O)[C@@H](O)[C@@H](O[C@H]4[C@H](O)[C@@H](O)[C@@H](O[C@H]5[C@H](O)[C@@H](O)[C@@H](O[C@H]6[C@H](O)[C@@H](O)[C@@H](O[C@H]7[C@H](O)[C@@H](O)[C@@H](O[C@H]8[C@H](O)[C@@H](O)[C@@H](O[C@H]1[C@H](O)[C@H]2O)O[C@@H]8CO)O[C@@H]7CO)O[C@@H]6CO)O[C@@H]5CO)O[C@@H]4CO)O[C@@H]3CO [βCD, β-Cyclodextrin]	1480 ± 180 M⁻¹	350 ± 40 M⁻¹	460 ± 45 M⁻¹	–	–
O=C(N[C@H]1C(O)O[C@H](CO)[C@H](O)[C@@H]1O)OCc1cn(C[C@H]2O[C@@H]3O[C@H]4[C@H](O)[C@@H](O)[C@@H](O[C@H]5[C@H](O)[C@@H](O)[C@@H](O[C@H]6[C@H](O)[C@@H](O)[C@@H](O[C@H]7[C@H](O)[C@@H](O)[C@@H](O[C@H]8[C@H](O)[C@@H](O)[C@@H](O[C@H]9[C@H](O)[C@@H](O)[C@@H](O[C@H]2[C@H](O)[C@H]3O)O[C@@H]9CO)O[C@@H]8CO)O[C@@H]7CO)O[C@@H]6CO)O[C@@H]5CO)O[C@@H]4CO)nn1 (stereo partly drawn) [βCDGAL]	2760 ± 110 M⁻¹	1300 ± 60 M⁻¹	840 ± 45 M⁻¹	4.5	Increase in solubility of AQ2CA (in words) [3]: almost tenfold increase
O=C(CCCCC1CCSS1)OCc1cn(C[C@H]2O[C@@H]3O[C@H]4[C@H](O)[C@@H](O)[C@@H](O[C@H]5[C@H](O)[C@@H](O)[C@@H](O[C@H]6[C@H](O)[C@@H](O)[C@@H](O[C@H]7[C@H](O)[C@@H](O)[C@@H](O[C@H]8[C@H](O)[C@@H](O)[C@@H](O[C@H]9[C@H](O)[C@@H](O)[C@@H](O[C@H]2[C@H](O)[C@H]3O)O[C@@H]9CO)O[C@@H]8CO)O[C@@H]7CO)O[C@@H]6CO)O[C@@H]5CO)O[C@@H]4CO)nn1 (stereo partly drawn) [βCDLip]	2520 ± 175 M⁻¹	940 ± 25 M⁻¹	800 ± 40 M⁻¹	4.5	Increase in solubility of AQ2CA (in words) [3]: almost tenfold increase
CCCc1cn(C[C@H]2O[C@@H]3O[C@H]4[C@H](O)[C@@H](O)[C@@H](O[C@H]5[C@H](O)[C@@H](O)[C@@H](O[C@H]6[C@H](O)[C@@H](O)[C@@H](O[C@H]7[C@H](O)[C@@H](O)[C@@H](O[C@H]8[C@H](O)[C@@H](O)[C@@H](O[C@H]9[C@H](O)[C@@H](O)[C@@H](O[C@H]2[C@H](O)[C@H]3O)O[C@@H]9CO)O[C@@H]8CO)O[C@@H]7CO)O[C@@H]6CO)O[C@@H]5CO)O[C@@H]4CO)nn1 [βCDTriazol]	–	–	–	4.5	–
NC[C@H]1O[C@@H]2O[C@H]3[C@H](O)[C@@H](O)[C@@H](O[C@H]4[C@H](O)[C@@H](O)[C@@H](O[C@H]5[C@H](O)[C@@H](O)[C@@H](O[C@H]6[C@H](O)[C@@H](O)[C@@H](O[C@H]7[C@H](O)[C@@H](O)[C@@H](O[C@H]8[C@H](O)[C@@H](O)[C@@H](O[C@H]1[C@H](O)[C@H]2O)O[C@@H]8CO)O[C@@H]7CO)O[C@@H]6CO)O[C@@H]5CO)O[C@@H]4CO)O[C@@H]3CO [βCDamine, 6-monodeoxy-6-monoamino-β-cyclodextrin hydrochloride]	2450 ± 200 M⁻¹	–	280 ± 30 M⁻¹	–	pKa ([2]; amine derivative CD): 8.84
